Earlier results, collected in patent US12042505B2, “Compositions and methods for treating dry eye” (priority 2021, dated 2024).

Settings: for side effects: background statement on marketed drug

| SMILES | hydrolysis by cholinesterase (background statement) | side effects | absorption in the gastrointestinal tract (background statement) |
| --- | --- | --- | --- |
| CC(C[N+](C)(C)C)OC(N)=O (stereo not shown) [Bethanechol] | not hydrolyzed by cholinesterase | dizziness, drowsiness, lightheadedness, headache, nausea, vomiting, abdominal cramps/pain, diarrhea, increased salivation or urination, headache, slow heart rate followed by fast heart rate, and sweating | – |
| C[N+](C)(C)CCOC(N)=O [Carbachol] | – | miosis that can diminish ocular focus | not well absorbed in the gastrointestinal tract |
| CC1OC2(CS1)CN1CCC2CC1 (stereo not shown) [Cevimeline] | – | bladder pain, nausea, vomiting, diarrhea, sweating, rash, headache, runny nose, drowsiness, hot flashes, blurred vision, difficulty sleeping | – |
| CC[C@@H]1C(=O)OC[C@@H]1Cc1cncn1C [Pilocarpine] | – | miosis, blurred vision, pupillary spasms; topically, it also results in burning and stinging | – |
| CN(C)C(=O)Oc1ccc[n+](C)c1 [Pyridostigmine] | – | dizziness, drowsiness, lightheadedness, headache, nausea, vomiting, abdominal cramps/pain, diarrhea, increased salivation or urination, headache, slow heart rate followed by fast heart rate, and sweating | – |
